In patent publication US20250171462A1 (NICO Therapeutics, Inc., priority 2022, published 2025):
Read-outs that look alike come from different tables or passages of the source.

Target: T1, full-length SARM1 (FL-SARM1) (Homo sapiens, UniProt Q6SZW1)
T1 sequence (Q6SZW1 28-724): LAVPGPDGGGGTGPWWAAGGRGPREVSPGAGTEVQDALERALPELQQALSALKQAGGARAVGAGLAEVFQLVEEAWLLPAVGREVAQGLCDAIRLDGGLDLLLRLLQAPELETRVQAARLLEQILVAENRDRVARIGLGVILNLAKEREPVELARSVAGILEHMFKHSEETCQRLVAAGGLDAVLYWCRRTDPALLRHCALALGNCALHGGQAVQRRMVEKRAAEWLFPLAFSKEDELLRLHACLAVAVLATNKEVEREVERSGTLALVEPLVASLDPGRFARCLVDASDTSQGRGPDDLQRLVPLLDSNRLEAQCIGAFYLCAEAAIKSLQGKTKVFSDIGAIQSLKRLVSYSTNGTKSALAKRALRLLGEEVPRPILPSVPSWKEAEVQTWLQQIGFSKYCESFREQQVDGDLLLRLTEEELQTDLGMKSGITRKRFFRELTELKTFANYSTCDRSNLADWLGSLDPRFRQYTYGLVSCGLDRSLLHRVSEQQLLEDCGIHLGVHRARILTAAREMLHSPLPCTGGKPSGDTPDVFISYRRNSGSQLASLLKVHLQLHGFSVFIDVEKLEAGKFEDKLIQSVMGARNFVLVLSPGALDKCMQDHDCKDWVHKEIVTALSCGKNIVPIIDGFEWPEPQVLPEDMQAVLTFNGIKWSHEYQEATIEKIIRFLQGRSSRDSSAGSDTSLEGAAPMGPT
Assay: FL-SARM1 cellular lysate assay (NAD/NADH-Glo detection of remaining NAD+, NMN-activated)

[1] = Activity (μM) (IC50), 11 point curve
[2] = read-out: Activity (IC50 class), 11 point curve
[3] = Activity (IC50 class), 11 point curve

Experimental: Preparation of full-length SARM1 (FL-SARM1) lysate: HEK293T cells (ATCC: CRL-3216) were grown on 150 mm TC-treated dishes to 80-90% confluency in complete DMEM (DMEM (Thermo Fisher: 11965175) supplemented with 10% HI—FBS (VWR: 10802-772), 1× Pen/Strep (Thermo Fisher: 15140122), 1×NEAA (Thermo Fisher: 1140050), 1× glutamax (Thermo Fisher: 35050061), and 1 mM sodium pyruvate (Thermo Fisher: 11360070)) at 37° C. and 5% CO2. One hour prior to transfection, the media was replaced with fresh, 37° C. complete DMEM (20 mL per one 150 mm dish) supplemented with additional 10 mM glucose (Alfa Aesar AAJ60067EQE). Per one 150 mm dish, 30 μg FL-SARM1 (SEQ. ID. 1; cloned in-house) plasmid was dissolved in 1 mL DMEM at ambient temperature and were mixed by inverting the tube 8-10 times. 90 μL of GenJet™ in vitro DNA transfection reagent (Ver2) was dissolved in 1 mL DMEM at ambient temperature and were mixed by inverting the tube 8-10 times. The plasmid and transfection agent solutions were combined, mixed by 8-10 inversions and incubated for 10 minutes at ambient temperature. 2 mL of this transfection mixture was added to each dish containing HEK293T cells as prepared above followed by a gentle mixing of 4-5 horizontal rotations. The dishes were incubated at 37° C. and 5% CO2 for 24 h. The dishes were removed from the incubator, the medium was aspirated and the cells were scraped off using cell scrapers in ice-cold 1×PBS (5 mL/dish, Thermo Fisher Scientific 10010023). The collected cells were centrifuged at 300 g for 5 minutes at 4° C. The supernatant was aspirated and the pellet was frozen at −80° C. until needed. The cell pellet from 30 dishes was dissolved in 30 mL 1×PBS supplemented with 4 tablets of Complete, Mini EDTA-free protease inhibitor cocktail at 4° C. This mixture was sonicated on ice for 10 minutes at 50% amplitude with a 1 second on/1 second off interval using a Model 120 sonicator (Thermo Fisher Scientific, FB120110). The lysate was centrifuged at 16000 g for 10 minutes at 4° C.
To a white 384-well Proxiplate (PerkinElmer, PE-6008280) was added 50 nL/well of a DMSO solution containing test compounds followed by 7.5 μL/well of a 0.067 mg/mL solution of SARMi cellular lysate in reaction buffer (DPBS containing CHAPSO (0.1%) and fatty acid free BSA (0.032%)). The plate was centrifuged for 1 minute at 1000 RPM and then placed in an incubator at 23° C. for 15 minutes. To the wells were added 2.5 μL/well of a solution containing 40 M NAD^+ and 4 mM nicotinamide mononucleotide (NMN) in reaction buffer. The plate was centrifuged for 1 min at 1000 RPM, the plate was sealed and placed in an incubator at 23° C. for 3.5 hours before adding 3.5 μL/well of NAD/NADH-Glo™ solution (preparation as described by Promega using the extended detection protocol). The plate was centrifuged for 1 minute at 1000 RPM and then incubated at 23° C. for 20 minutes. 1 μL/well of a 3.625 mM solution of menadione in DMSO was added and the plate was centrifuged for 1 minute at 1000 RPM. Relative light units (RLU) were recorded using an Envision plate reader at a height of 6.5 mm.
IC50 values were calculated from an 11 point curve using ½ log dilutions using a four-parameter logistic regression curve fit.

SMILES	IC50 [1] [µM]	IC50 [2] [µM]	IC50 [3] [µM]
Cc1ccc(NC(=O)N2C3C[C@@H](C)C[C@H]2C3)cc1-c1cncc(F)n1 [Example 231, cis-N-[3-(6-fluoropyrazin-2-yl)-4-methylphenyl]-3-methyl-6-azabicyclo[3.1.1]heptane-6-carboxamide]	0.08	0.0001 to 1	
Cc1ccc(NC(=O)N2CC(C)C2)cc1-c1ncc(F)cn1 [Example 232, N-[3-(5-fluoropyrimidin-2-yl)-4-methylphenyl]-3-methylazetidine-1-carboxamide]	20		> 10
Cc1ccc(NC(=O)N2C3C[C@@H](C)C[C@H]2C3)cc1-c1nccc(OC(F)F)n1 [Example 233, cis-N-[3-[4-(difluoromethoxy)pyrimidin-2-yl]-4-methylphenyl]-3-methyl-6-azabicyclo[3.1.1]heptane-6-carboxamide]	0.1	0.0001 to 1	
CCc1ccc(-c2cc(NC(=O)N3C4C[C@@H](C)C[C@H]3C4)ccc2C)nn1 [Example 234, cis-N-[3-(6-ethylpyridazin-3-yl)-4-methylphenyl]-3-methyl-6-azabicyclo[3.1.1]heptane-6-carboxamide]	0.4	0.0001 to 1	
Cc1ccc(NC(=O)N2[C@@H]3C[C@@H](C)C[C@H]2C3)cc1-c1cc(OC(F)F)cnn1 [Example 235, cis-N-[3-[5-(difluoromethoxy)pyridazin-3-yl]-4-methylphenyl]-3-methyl-6-azabicyclo[3.1.1]heptane-6-carboxamide]	0.06	0.0001 to 1	
Cc1ccc(NC(=O)N2[C@@H]3C[C@@H](C)C[C@H]2C3)cc1-c1nccc(C2CC2)n1 [Example 236, cis-N-[3-(4-cyclopropylpyrimidin-2-yl)-4-methylphenyl]-3-methyl-6-azabicyclo[3.1.1]heptane-6-carboxamide]	0.7	0.0001 to 1	
CCc1ccnc(-c2cc(NC(=O)N3C4C[C@@H](C)C[C@H]3C4)ccc2C)n1 [Example 237, cis-N-[3-(4-ethylpyrimidin-2-yl)-4-methylphenyl]-3-methyl-6-azabicyclo[3.1.1]heptane-6-carboxamide]	1.1		1 to 10
Cc1ccc(NC(=O)N2[C@@H]3C[C@@H](C)C[C@H]2C3)cc1-c1cncc(C#N)n1 [Example 238, cis-N-[3-(6-cyanopyrazin-2-yl)-4-methylphenyl]-3-methyl-6-azabicyclo[3.1.1]heptane-6-carboxamide]	0.04	0.0001 to 1	
Cc1cnc(-c2cc(NC(=O)N3C4C[C@@H](C)C[C@H]3C4)c(F)cc2C)nn1 [Example 239, cis-N-[2-fluoro-4-methyl-5-(6-methyl-1,2,4-triazin-3-yl)phenyl]-3-methyl-6-azabicyclo[3.1.1]heptane-6-carboxamide]	0.2	0.0001 to 1	
Cc1cc(F)c(NC(=O)N2[C@@H]3C[C@@H](C)C[C@H]2C3)cc1-c1nccnn1 [Example 240, cis-N-[2-fluoro-4-methyl-5-(1,2,4-triazin-3-yl)phenyl]-3-methyl-6-azabicyclo[3.1.1]heptane-6-carboxamide]	0.09	0.0001 to 1	
Cc1cc(F)c(NC(=O)N2C3C[C@@H](C4CC4)C[C@H]2C3)cc1-c1cccnn1 [Example 241, cis-3-cyclopropyl-N-(2-fluoro-4-methyl-5-pyridazin-3-ylphenyl)-6-azabicyclo[3.1.1]heptane-6-carboxamide]	0.09	0.0001 to 1	
Cc1ccc(-c2cc(NC(=O)N3[C@@H]4C[C@@H](C)C[C@H]3C4)ccc2C)nn1 [Example 242, cis-3-methyl-N-[4-methyl-3-(6-methylpyridazin-3-yl)phenyl]-6-azabicyclo[3.1.1]heptane-6-carboxamide]	0.07	0.0001 to 1	
COCCOCc1ccnc(-c2cc(NC(=O)N3[C@@H]4C[C@@H](C)C[C@H]3C4)ccc2C)n1 [Example 243, cis-N-[3-[4-(2-methoxyethoxymethyl)pyrimidin-2-yl]-4-methylphenyl]-3-methyl-6-azabicyclo[3.1.1]heptane-6-carboxamide]	1.1		1 to 10
